Results taken from paper PMC4520450, “Procyanidins Negatively Affect the Activity of the Phosphatases of Regenerating Liver” (PLoS ONE, 2015).
Where two headings read alike, the source gives them in different places. One block for each molecule: values may come before it.

Assays:
[1] = molecular target: T1, PRL-3 (Homo sapiens, UniProt O75365); assay: DiFMUP phosphatase activity assay for PRLs; format: biochemical
T1 construct: His-TEV (cleaved yes); made in house
Description: Biochemical phosphatase activity measurements were carried out in the presence of different concentrations of various polyphenols, compounds 1–11 (Fig 1), using recombinant PRL-3 and 6,8-difluoro-4-methylumbelliferyl phosphate (DiFMUP) as a fluorogenic substrate (see the experimental procedures). We observed that the monomeric epicatechins EGC and EC inhibit PRL-3 only weakly, with a slightly better activity of EGC, which bears three hydroxyl groups at the B-ring. […] In general, as a basic structure activity-relationship the following trend was observed: a higher number of hydroxyl groups at the B-ring increased the activity slightly. […] The influence of the stereochemistry at C(2)–C(3) was studied by using GCG (the trans-epimer of EGCG).
(§1) Fig 2 Effect of polyphenolic compounds 8 (A), 9 (B), 10 (C) and 11 (D) on the phosphatase activity of PRL-1, PRL-2, PRL-3, PP1, and PP2A. Proteins were incubated for 30 min with 0–1000 μM of the corresponding procyandin 8–11. Phosphatase activity was measured in the presence of DiFMUP at 25°C using the concentration corresponding to the KM of each protein. The KM for PRLs was determined separately (PRL-3 = 21 μM, PRL-2 and PRL-1 = 24 μM). The KM for PP1 (91 μM) and for PP2A (100 μM) was taken from the literature. Protein concentrations are 50 nM for all PRLs and 2 mU for PP1 and 0.05 U for PP2A (see the Experimental Procedures). Phosphatase activity in the absence of inhibitors was set as 100%. Data represent means ± standard errors of the mean (n = 3–5).
(§2) DiFMUP assay for PRLs: In a final reaction volume of 100 μL the PRLs (50 nM final concentration) were incubated with decreasing concentrations of the inhibitory polyphenols for 30 minutes at 25°C. The buffer conditions were 108 mM TrisCl (pH 7.5), Triton 0.05% (v/v), DTT 27.0 mM, NaCl 811 mM. After the incubation time 20 μL DiFMUP (6,8-Difluoro-4-methylumbelliferyl phosphate) was added to reach a final concentration of 21 μM for PRL-3 and 24 μM for PRL-1 and PRL-2. On a Tecan safire2 (Tecan, Salzburg, Austria) plate reader dephosphorylation of the substrate to its fluorescent product was monitored by following the emission at 358 nm with excitation at 452 nm for 20 minutes. All measurements were done in triplicates, and the experiments were repeated at least three times. The slopes of the initial phases were obtained by linear regression of the data points. The normalized reaction rates were plotted versus the log of the inhibitor concentrations and the IC50 values were obtained by fitting the curves using the one site competition model of GraphPad Prism (GraphPad Software, Version 5). KM values were determined by measuring reaction kinetics of substrate dilution series. Initial velocities were plotted against DiFMUP concentration and the data was analyzed by Michaelis-Menten kinetics curve fitting of GraphPad Prism. A final DMSO content of 0.4% was maintained for the monomeric catechins. Due to the high water solubility of the procyanidins DMSO was not required and measurements were done in assay buffer only.

[2] = molecular target: T2, PRL-1 (Homo sapiens, UniProt Q93096); assay: DiFMUP phosphatase activity assay for PRLs; format: biochemical
T2 construct: His-TEV (cleaved yes); made in house
T2 sequence (Q93096 1-173): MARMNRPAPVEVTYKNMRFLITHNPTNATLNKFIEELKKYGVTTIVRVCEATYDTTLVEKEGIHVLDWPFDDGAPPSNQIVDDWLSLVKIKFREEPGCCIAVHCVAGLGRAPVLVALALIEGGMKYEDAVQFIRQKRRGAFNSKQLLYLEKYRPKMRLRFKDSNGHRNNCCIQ
Description: as §1, §2

[3] = molecular target: T3, PRL-2 (Homo sapiens, UniProt Q12974); assay: DiFMUP phosphatase activity assay for PRLs; format: biochemical; settings: 50 nM PRL-2, 30 min preincubation, 25°C, 24 μM DiFMUP; mean ± SEM (n = 3–5); read-out: IC50 (Ki) PRL-2
T3 construct: His-TEV (cleaved yes); made in house
T3 sequence (Q12974 1-167): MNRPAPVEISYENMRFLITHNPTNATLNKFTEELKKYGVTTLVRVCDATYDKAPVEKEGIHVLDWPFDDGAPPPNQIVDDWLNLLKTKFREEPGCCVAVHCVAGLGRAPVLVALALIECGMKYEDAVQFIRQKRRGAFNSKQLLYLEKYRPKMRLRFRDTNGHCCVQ
Description: as §1, §2

[4] = molecular target: T4, PP1 (Oryctolagus cuniculus, UniProt P62139); assay: DiFMUP assay for PP1; format: biochemical
T4 construct: purchased NewEngland Biolabs; host or cells: E. coli
Description: as §1
(§3) BSA, which is usually supplemented to the assay buffer for stabilizing the PPs was however excluded, as BSA is known to form complexes with polyphenolic compounds [40–42] and thus would decrease the concentrations of the inhibitor in the assay. […] In contrast, the phosphatase activity of PP2A was suppressed to a much lesser extent with weak (for trimer 9 and hexamer 11) and strong statistical significance (dimer 8 and tetramer 10). Thus our results corroborate the data reported previously.
DiFMUP assay for PP1: In a final reaction volume of 100 μL PP1c (2 mU final concentration, according to manufacturer’s instructions) were incubated with decreasing concentrations of the inhibitory polyphenols for 30 minutes at 25°C. The assay buffer contained 25 mM imidazole (pH 7.4), 1 mM dithiothreitol (DTT), and 50 mM NaCl. Bovine serum albumin (BSA) was excluded due to possible binding of the polyphenolic compounds. After the incubation time 20 μL DiFMUP (6,8-Difluoro-4-methylumbelliferyl phosphate) was added to reach a final concentration of 100 μM. Monitoring of the fluorescent dephosphorylation product was monitored and data analyzed as described above.

[5] = molecular target: T5, PP2A (Homo sapiens, UniProt P67775); assay: DiFMUP assay for PP2A; format: biochemical; settings: 0.05 U PP2A, 30 min preincubation, 25°C, no BSA, mean ± SEM (n = 3–5), read-out: IC50 (Ki) PP2A
T5 construct: purified from human red blood cells; purchased Merck Millipore; host or cells: human red blood cells
Description: as §1, §3
Chemicals and vendors were as follows: Synthesis of Procyanidins (dimer to dodecamer) was done as previously reported. EGCG, EGC, ECG and EC were synthesized as previously reported or purchased from Sigma. (+)-Catechin and 3-(4,5-dimethylthiazol-2-yl)-2,5-diphenyltetrazolium bromide (MTT) were obtained from Sigma. 6,8-Difluoro-4-Methylumbelliferyl Phosphate (DiFMUP), propidium iodide and calcein AM were from lifescience technologies. Cell dissociation solution (10X) was purchased from amsbio. PP1c (recombinant from E. coli) was purchased from NewEngland Biolabs and PP2A (purified from human red blood cells, contains different subunits according to manufacturer) from Merck Millipore. Transwell plates (BRANDplates) and insert stripes for the migration assay were purchased from Brand GmbH. Black 96 well plates (96F Nunclon Delta) were purchased from Thermo Scientific. Transparent 96 well assay plates with UV transparent bottom were purchased from Corning Inc. Wound healing experiments were carried out with μ-dish 35 mm culture inserts, which were purchased from Ibidi.
DiFMUP assay for PP2A: In a final reaction volume of 100 μL PP2A (0.05 U final concentration, according to manufacturer’s instructions) were incubated with decreasing concentrations of the inhibitory polyphenols for 30 minutes at 25°C. The assay buffer contained 50 mM TrisCl (pH 7.5), 250 mM NaCl, 0.1 mM EDTA, 1 mM MnCl2, and 2 mM dithiothreitol (DTT). […] Monitoring of the fluorescent dephosphorylation product was monitored and data analyzed as described above.

[6] = molecular target: protein phosphatase-1; parameters: method as in PMID 22260360; settings: cited from earlier work
[7] = test system: PRL-1 overexpressing HEK293 cells; assay: Wound healing assay; format: cell-based; settings: 35 μM analog 3, PRL-1 overexpressing cells
Description: (§4) To study if procyanidin C2 is able to inhibit PRL-1 and PRL-3 in cells, HEK293 cells were treated in a wound-healing assay (see the experimental procedures). […] As a control the empty vector cell line was again utilized. […] The migration speed was for all cell lines similar when treated with 50 μM of 9. To further corroborate these findings we performed additionally a transwell assay as an alternative way to study cell migration.
(§5) Fig 6 Wound healing abilities of PRL-1 or PRL-3 overexpressing or empty vector control HEK293 cell lines were analyzed in the presence of compound 9 or medium only. Cells were seeded at a concentration of 800,000 cells per insert and procyanidin C2 (9) was added at a concentration of 25 and 50 μM. A) Pictures of the wound gaps were taken at 0 h and 7 h for both conditions (with and without treatment). B) Quantification of the wound healing experiment. Speed of migration is shown for combined data from different replicates, as mean ± SD (n = 38–88). Two-sided t-tests with Welsh correction were performed for p < 0.05. ns = not significant;***: < 0.001; **: < 0.01; *: < 0.05. C) Effect of polyphenolic compounds in a transwell assay on the cell migration of HEK293 empty vector and PRL-3 overexpressing cell lines. Cells were seeded at a concentration of 100,000 cells per insert and procyanidin C2 (9) was added at a final concentration of 25 and 50 μM. Migration was allowed for 16 h before harvesting and staining with calcein AM for fluorescent readout. Mean ± SD (n = 60–72) is shown for combined data from different replicates. Two-sided t-tests with Welsh correction were performed for p < 0.05. ns = not significant. D) Quantification of wound healing experiment including blocking PRL-1 and PRL-3 with analog 3. Speed of migration is shown for combined data from different replicates, as mean ± SD (n = 63–82). Two-sided t-tests with Welsh correction were performed for p < 0.05.
(§6) Wound healing experiments were carried out with μ-dish 35mm culture inserts. 8 × 10^5 cells/mL of the respective HEK293 stable cell lines were seeded into each of the two insert wells and allowed to settle for 40 h in the presence of tetracycline. Then the inserts were gently removed and growth medium supplemented with 7.5% FBS and 0.1% tetracycline was added as well as procyanidin C2 (9) or procyanidin B3 (8) at a final concentration of 25, 50 or 75 μM. For the experiment including blocking of PRLs with analog 3, the latter one was added at a final concentration of 35 μM, followed by addition of procyanidin C2 (9) at either 25 or 50 μM final concentration. Negative controls contained growth medium with FBS only. Pictures of the wound gap were taken at 0 h and 7 h time points. A Zeiss Cellobserver HS microscope was used with 10 × magnitude. For data analysis, in each experiment, the distances between both cell fronts at time point 0 h and 7 h were measured by taking 20 different measuring points. Then all the measurements from different replicates (4) for each experiment were combined and analyzed by t-test using Welsh correction in GraphPad Prism. Data are shown with 99% confidence intervals.

[8] = test system: PRL-3 overexpressing HEK293 cells; assay: Wound healing assay; format: cell-based; settings: 35 μM analog 3, PRL-3 overexpressing cells
Description: as §4, §5, §6

[9] = 50 nM PRL-3, 30 min preincubation, 25°C, 21 μM DiFMUP, mean ± SEM (n = 3–5), read-out: IC50 (Ki) PRL-3

T1 sequence (O75365 whole entry): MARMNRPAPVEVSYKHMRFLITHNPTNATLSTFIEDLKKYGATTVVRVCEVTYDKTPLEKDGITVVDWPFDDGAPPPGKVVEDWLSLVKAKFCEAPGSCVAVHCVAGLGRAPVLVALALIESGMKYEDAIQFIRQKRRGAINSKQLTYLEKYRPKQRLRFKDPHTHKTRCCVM
T4 sequence (P62139 whole entry): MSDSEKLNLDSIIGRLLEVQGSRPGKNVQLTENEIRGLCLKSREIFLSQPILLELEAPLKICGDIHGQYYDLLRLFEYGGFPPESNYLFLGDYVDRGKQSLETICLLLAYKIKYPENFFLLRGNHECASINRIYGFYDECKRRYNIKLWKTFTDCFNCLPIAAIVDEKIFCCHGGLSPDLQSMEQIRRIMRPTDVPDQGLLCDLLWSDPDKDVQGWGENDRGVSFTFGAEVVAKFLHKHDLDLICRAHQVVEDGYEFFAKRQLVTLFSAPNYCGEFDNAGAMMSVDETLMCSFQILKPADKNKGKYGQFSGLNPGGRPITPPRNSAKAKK
T5 sequence (P67775 whole entry): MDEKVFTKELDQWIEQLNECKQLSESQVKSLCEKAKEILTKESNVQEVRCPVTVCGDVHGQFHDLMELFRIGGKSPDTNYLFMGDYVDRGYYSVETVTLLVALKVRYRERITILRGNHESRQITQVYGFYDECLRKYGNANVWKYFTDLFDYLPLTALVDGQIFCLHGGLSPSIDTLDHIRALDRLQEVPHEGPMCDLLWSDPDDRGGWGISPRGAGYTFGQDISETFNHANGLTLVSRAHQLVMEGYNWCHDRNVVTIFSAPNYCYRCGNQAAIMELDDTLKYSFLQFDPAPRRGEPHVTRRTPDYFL
T5 sequence (P30153 2-589 partner limits assumed): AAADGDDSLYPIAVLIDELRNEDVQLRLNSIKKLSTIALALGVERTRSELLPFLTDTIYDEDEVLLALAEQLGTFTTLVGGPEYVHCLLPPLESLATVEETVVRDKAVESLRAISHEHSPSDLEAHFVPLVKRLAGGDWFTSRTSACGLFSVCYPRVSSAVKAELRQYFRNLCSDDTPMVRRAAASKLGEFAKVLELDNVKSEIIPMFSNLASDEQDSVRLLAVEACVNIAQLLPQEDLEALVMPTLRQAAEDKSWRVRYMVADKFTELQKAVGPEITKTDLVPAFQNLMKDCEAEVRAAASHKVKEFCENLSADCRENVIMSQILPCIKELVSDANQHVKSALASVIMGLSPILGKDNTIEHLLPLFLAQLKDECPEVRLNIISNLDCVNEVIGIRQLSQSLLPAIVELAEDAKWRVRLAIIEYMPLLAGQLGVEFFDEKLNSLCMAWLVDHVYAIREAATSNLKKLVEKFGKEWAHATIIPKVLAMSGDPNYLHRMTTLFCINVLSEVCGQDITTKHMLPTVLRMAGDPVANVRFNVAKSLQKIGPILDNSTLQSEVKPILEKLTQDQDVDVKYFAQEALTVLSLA

IC50 [1, 9]: 456 ± 65.6 µM
IC50 toward PRL-1 relative to IC50 values of the oligomers [2]: 50 fold
IC50 toward PRL-1 relative to PRL-3 [2]: about three times lower
IC50 ([2]; 50 nM PRL-1, 30 min preincubation, 25°C, 24 μM DiFMUP, mean ± SEM (n = 3–5), read-out: IC50 (Ki) PRL-1): 158 ± 1.2 µM
Compound: Oc1cc(O)c2c(c1)O[C@H](c1ccc(O)c(O)c1)[C@@H](O)C2 [(+)-Catechin (6), (+)-Catechin]

IC50 [1, 9]: 514 ± 68.2 µM
Compound: Oc1cc(O)c2c(c1)O[C@H](c1ccc(O)c(O)c1)[C@H](O)C2 [EC (1), (–)-epicatechin]

increase in PRL-3 inhibition of 3-gallate ester compared to non-gallate (2 vs 1, 4 vs 3) [1]: about two-fold increase
IC50 [1, 9]: 181 ± 13.6 µM
Compound: O=C(O[C@@H]1Cc2c(O)cc(O)cc2O[C@@H]1c1ccc(O)c(O)c1)c1cc(O)c(O)c(O)c1 [ECG (2), (–)-epicatechin-3-O-gallate]

Compound: Oc1cc(O)c2c(c1)O[C@H](c1cc(O)c(O)c(O)c1)[C@H](O)C2 [EGC (3), (–)-epigallocatechin]
IC50 [1, 9]: 285 ± 3.7 µM

IC50 [1, 9]: 113 ± 10.7 µM
Compound: O=C(O[C@H]1Cc2c(O)cc(O)cc2O[C@@H]1c1cc(O)c(O)c(O)c1)c1cc(O)c(O)c(O)c1 [GCG (5)]

Compound: O=C(O)c1cc(O)c(O)c(O)c1 [Gallic acid (7), Gallic acid]
IC50 [1]: > 1000 µM
inhibition of PRL-3 ([1]; up to 1000 μM): did not show any inhibition

IC50 [1, 9]: 12.5 ± 1.8 µM
IC50 [3]: 10 ± 0.4 µM
PP1 potency of hexamer compared to tetramer 10 [4]: increased only about two-fold
IC50 ([4]; 2 mU PP1c, 30 min preincubation, 25°C, DiFMUP, no BSA, mean ± SEM (n = 3–5), read-out: IC50 (Ki) PP1): 7 ± 2.3 µM
IC50 [5]: 32.5 ± 4.8 µM
Compound: Oc1cc(O)c2c(c1)O[C@H](c1ccc(O)c(O)c1)[C@@H](O)[C@@H]2c1c(O)cc(O)c2c1O[C@H](c1ccc(O)c(O)c1)[C@@H](O)[C@@H]2c1c(O)cc(O)c2c1O[C@H](c1ccc(O)c(O)c1)[C@@H](O)[C@@H]2c1c(O)cc(O)c2c1O[C@H](c1ccc(O)c(O)c1)[C@@H](O)[C@@H]2c1c(O)cc(O)c2c1O[C@H](c1ccc(O)c(O)c1)[C@@H](O)[C@@H]2c1c(O)cc(O)c2c1O[C@H](c1ccc(O)c(O)c1)[C@@H](O)C2 [Hexamer (11)]

Compound: O=C(OC[C@H]1O[C@@H](OC(=O)c2cc(O)c(O)c(O)c2)[C@H](OC(=O)c2cc(O)c(O)c(O)c2)[C@@H](OC(=O)c2cc(O)c(O)c(O)c2)[C@@H]1OC(=O)c1cc(O)c(O)c(O)c1)c1cc(O)c(O)c(O)c1 [PGG, 1,2,3,4,6-penta-O-galloyl-beta-D-glucose, reference compound]
IC50 [6]: 0.4 µM

Compound: Oc1cc(O)c2c(c1)O[C@H](c1cc(O)c(O)c(O)c1)[C@H](O)C2 [analog 3, reference compound]
migration speed, wound healing [7]: a bit lower than the baseline
migration speed, wound healing [8]: fell back to the baseline level of the empty vector cell line
